Our source for the Activity and IC50 values is ChEMBL document CHEMBL2331518, “Rapid microwave-enhanced synthesis of C5-alkynyl pyranonucleosides as novel cytotoxic antitumor agents” (Bioorg Med Chem Lett, 2013).

The structures appear in SMILES notation. pIC50: −log10 of the molar value. Active and inactive are the calls of the source. No cut-off for these calls is given here. Bounds are passed on as bounds.

Assay [1] concerns Human immunodeficiency virus 2. The assay can be described thus: Antiviral activity against HIV2 ROD infected in human CEM cells assessed as reduction of virus-induced cytopathicity after 4 to 5 days. It is filed as functional, organism-based. To be noted: ISOLATE ROD, CCRF-CEM. For orientation: Protection from cytopathic effect is a common read-out in antiviral testing.
The test system of assay [2] is Human immunodeficiency virus 1. Put plainly: Antiviral activity against HIV1 3B infected in human CEM cells assessed as reduction of virus-induced cytopathicity after 4 to 5 days. Type of assay: functional, organism-based. To be noted: CCRF-CEM.
Another assay deals with Punta Toro virus. Put plainly: Antiviral activity against Punta Toro virus by cell based assay. It is filed as functional, organism-based.
The test system of assay [3] is Mammalian orthoreovirus 1. Put plainly: Antiviral activity against Reovirus-1 by cell based assay. It is filed as functional, organism-based.
The next assay concerns Influenza B virus. Put plainly: Antiviral activity against Influenza B virus by cell based assay. It is filed as functional, organism-based.
Assay [4] relates to Influenza A virus. Put plainly: Antiviral activity against Influenza A virus H3N2 by cell based assay. It is filed as functional, organism-based.
The test system of the next assay is Sindbis virus. The assay can be described thus: Antiviral activity against Sindbis virus by cell based assay. It is filed as functional, organism-based.
The test system of assay [5] is Influenza A virus. The assay can be described thus: Antiviral activity against Influenza A virus H1N1 by cell based assay. Type of assay: functional, organism-based.
The next assay concerns Human respirovirus 3. Put plainly: Antiviral activity against Parainfluenza-3 virus by cell based assay. Type of assay: functional, organism-based.
The test system of a further assay is Coxsackievirus B4. Put plainly: Antiviral activity against Coxsackie virus B4 by cell based assay. Type of assay: functional, organism-based.
Assay [6] has as its system Vesicular stomatitis virus. The assay can be described thus: Antiviral activity against Vesicular stomatitis virus by cell based assay. Type of assay: functional, organism-based.
Assay [7] concerns Respiratory syncytial virus. Put plainly: Antiviral activity against Respiratory syncytial virus Long by cell based assay. Type of assay: functional, organism-based.
For the next assay, the system named is Vaccinia virus. Put plainly: Antiviral activity against Vaccinia virus Lederle by cell based assay. Type of assay: functional, organism-based. To be noted: Orthopoxvirus vaccinia.
For assay [8], the system named is Human alphaherpesvirus 2. The assay can be described thus: Antiviral activity against HSV-2 G by cell based assay. Type of assay: functional, organism-based. To be noted: strain G.
For assay [9], the system named is Human alphaherpesvirus 1. Put plainly: Antiviral activity against kinase-deficient acyclovir-resistant HSV-1 KOS by cell based assay. Type of assay: functional, organism-based.
Assay [10] has as its system Human alphaherpesvirus 2. The assay can be described thus: Antiviral activity against HSV-2 Lyons by cell based assay. It is filed as functional, organism-based.
In assay [11] the test system is Human alphaherpesvirus 1. The assay can be described thus: Antiviral activity against HSV-1 KOS by cell based assay. Type of assay: functional, organism-based.
A further assay has as its system HeLa. Put plainly: Cytotoxicity against human HeLa cells after 72 hrs. It is filed as functional, cell-based.
A further assay deals with L1210. The assay can be described thus: Cytotoxicity against mouse L1210 cells after 48 hrs. It is filed as functional, cell-based. To be noted: L1210, 48 h.
Another assay has as its system CCRF-CEM. The assay can be described thus: Cytotoxicity against human CEM cells after 72 hrs. It is filed as functional, cell-based.

Usually pIC50 stands for the negative decadic logarithm of the IC50, by convention in mol/L. Lower therefore signals a high IC50.

`C[n+]1ccccc1C#Cc1cn([C@@H]2O[C@H](CO)[C@@H](O)[C@H](O)[C@H]2O)c(=O)[nH]c1=O`: the result (in [1]; in [2]; with Punta Toro virus; in assay [3]; in the assay with Influenza B virus; in the assay on Influenza A virus [4]) was inactive. The outcome (with Sindbis virus; in the assay with Influenza A virus [5]; with Human respirovirus 3; in the assay on Coxsackievirus B4; in assay [6]; in assay [7]) was inactive. Further, the outcome in the assay on Vaccinia virus, with Human alphaherpesvirus 2 [8], in the assay on Human alphaherpesvirus 1 [9], in the assay on Human alphaherpesvirus 2 [10] and in the assay on Human alphaherpesvirus 1 [11] was inactive. Besides, the pIC50 with HeLa was 3.61; with L1210 it was 3.82; in the assay with CCRF-CEM it was less than 3.60.

Take `O=c1[nH]c(=O)n([C@@H]2O[C@H](CO)[C@@H](O)[C@H](O)[C@H]2O)cc1C#Cc1cccnc1`: the outcome (in [1]; in assay [2]; with Punta Toro virus; in assay [3]; with Influenza B virus; with Influenza A virus [4]) was inactive. Besides, the result (in the assay on Sindbis virus; in the assay on Influenza A virus [5]; with Human respirovirus 3; in the assay with Coxsackievirus B4; in assay [6]; in assay [7]) was inactive. For the same molecule, the outcome in the assay on Vaccinia virus, with Human alphaherpesvirus 2 [8], with Human alphaherpesvirus 1 [9], in the assay with Human alphaherpesvirus 2 [10] and in the assay with Human alphaherpesvirus 1 [11] was inactive. Further, the pIC50 in the assay with HeLa, with L1210 and in the assay on CCRF-CEM was less than 3.60 in each case.
